The record followed here is article PMC6273138, “Inhibitory Effects of Aschantin on Cytochrome P450 and Uridine 5′-diphospho-glucuronosyltransferase Enzyme Activities in Human Liver Microsomes” (Molecules, 2016).

Like-named read-outs stand apart in the source and are kept apart here.

One series deals with CYP2C9 (Homo sapiens, UniProt P11712). Briefly: Mechanism-based (time- and concentration-dependent) inactivation of CYP2C9 in human liver microsomes. It is filed as in vitro ADME. As to conditions: CYP2C9-catalyzed diclofenac 4′-hydroxylation. As to the method:
The microsomes (1 mg/mL) were pre-incubated with various concentrations of aschantin in 50 mM potassium phosphate buffer (pH 7.4) in the presence of NADPH. Aliquots (10 µL) of the incubated mixtures were withdrawn at 5, 10, 15, and 20 min after incubation commenced and added to other tubes containing the CYP substrates (2 µM amodiaquine for CYP2C8, 10 µM diclofenac for CYP2C9, 100 µM [S]-mephenytoin for CYP2C19, or 2 µM midazolam for CYP3A4), 1 mM NADPH, 50 mM potassium phosphate buffer (pH 7.4), and 10 mM MgCl2, in 90 µL reaction mixtures. […] Aliquots (5 µL) of the diluted supernatants were analyzed by LC-MS/MS, as described above.

The target of another series is T1, UGT1A4 (Homo sapiens, UniProt P22310).
T1 construct: using pooled human liver microsomes incubated with the cocktail of UGT substrates; tissue Corning Life Sciences 452161; host or cells: pooled human liver microsomes
T1 sequence (P22310 29-534): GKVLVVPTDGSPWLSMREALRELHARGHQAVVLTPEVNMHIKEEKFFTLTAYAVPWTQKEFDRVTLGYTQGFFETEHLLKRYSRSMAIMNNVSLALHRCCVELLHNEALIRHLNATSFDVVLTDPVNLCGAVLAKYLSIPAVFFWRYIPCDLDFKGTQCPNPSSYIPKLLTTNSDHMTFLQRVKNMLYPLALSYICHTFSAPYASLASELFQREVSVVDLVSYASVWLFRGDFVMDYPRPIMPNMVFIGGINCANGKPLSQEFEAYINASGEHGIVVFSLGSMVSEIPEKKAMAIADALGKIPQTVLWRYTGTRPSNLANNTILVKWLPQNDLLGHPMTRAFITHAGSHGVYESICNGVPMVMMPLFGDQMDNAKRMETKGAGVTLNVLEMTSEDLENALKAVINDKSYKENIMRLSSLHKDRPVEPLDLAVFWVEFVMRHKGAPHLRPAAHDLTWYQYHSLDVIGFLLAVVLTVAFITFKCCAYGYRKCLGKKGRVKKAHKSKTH
The series can be described thus: UGT1A4-catalyzed trifluoperazine N-glucuronidation inhibition in pooled human liver microsomes. The class given is in vitro ADME. As to the method:
(§1) The extents of aschantin on UGT1A1, UGT1A3, UGT1A4, UGT1A6, UGT1A9, and UGT2B7 were evaluated by LC-MS/MS, using pooled human liver microsomes incubated with the cocktail of UGT substrates. The method was modified from that of Joo et al..
(§2) The metabolites formed from the six UGT cocktail substrates were simultaneously measured using the LC-MS/MS method. […] The mass spectrometer was equipped with an ESI source and was operated in both positive and negative ion modes. […] Each metabolite was quantified via SRM in the negative ion (chenodeoxycholic acid 24-acyl-β-glucuronide, 567.2 > 391.0; mycophenolic acid glucuronide, 495.2 > 318.9; propofol glucuronide, 353.3 > 177.1) and positive ion (SN-38 glucuronide, 569.0 > 393.0; trifluoperazine glucuronide, 584.2 > 408.1; N-acetylserotonin-β-D-glucuronide, 395.2 > 219.0; naloxone 3-β-D-glucuronide, 504.0 > 310.0; meloxicam, 352.0 > 115.1) modes.

A further series has as its target T2, UGT1A6 (Homo sapiens, UniProt P19224).
T2 construct: using pooled human liver microsomes incubated with the cocktail of UGT substrates; tissue Corning Life Sciences 452161; host or cells: pooled human liver microsomes
T2 sequence (P19224 27-532): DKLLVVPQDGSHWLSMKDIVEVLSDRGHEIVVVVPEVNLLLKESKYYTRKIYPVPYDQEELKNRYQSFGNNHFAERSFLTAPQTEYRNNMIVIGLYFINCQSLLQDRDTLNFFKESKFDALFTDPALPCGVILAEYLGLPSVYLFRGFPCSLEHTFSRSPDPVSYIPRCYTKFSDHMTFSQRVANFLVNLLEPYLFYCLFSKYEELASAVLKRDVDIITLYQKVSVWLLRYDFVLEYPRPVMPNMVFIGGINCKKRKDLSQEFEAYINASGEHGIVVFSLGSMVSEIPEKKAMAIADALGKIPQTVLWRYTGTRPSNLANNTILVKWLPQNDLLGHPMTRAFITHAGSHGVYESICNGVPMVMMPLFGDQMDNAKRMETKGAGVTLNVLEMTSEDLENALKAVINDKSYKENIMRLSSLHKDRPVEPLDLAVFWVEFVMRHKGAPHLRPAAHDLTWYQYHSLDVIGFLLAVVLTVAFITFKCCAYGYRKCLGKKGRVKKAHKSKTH
The series can be described thus: UGT1A6-catalyzed N-acetylserotonin glucuronidation inhibition in pooled human liver microsomes. It is filed as in vitro ADME. As to conditions: 1 µM N-acetylserotonin. The method, then:
as §1, §2

The target of another series is T3, CYP2A6 (Homo sapiens, UniProt P11509).
T3 sequence (P11509 1-494): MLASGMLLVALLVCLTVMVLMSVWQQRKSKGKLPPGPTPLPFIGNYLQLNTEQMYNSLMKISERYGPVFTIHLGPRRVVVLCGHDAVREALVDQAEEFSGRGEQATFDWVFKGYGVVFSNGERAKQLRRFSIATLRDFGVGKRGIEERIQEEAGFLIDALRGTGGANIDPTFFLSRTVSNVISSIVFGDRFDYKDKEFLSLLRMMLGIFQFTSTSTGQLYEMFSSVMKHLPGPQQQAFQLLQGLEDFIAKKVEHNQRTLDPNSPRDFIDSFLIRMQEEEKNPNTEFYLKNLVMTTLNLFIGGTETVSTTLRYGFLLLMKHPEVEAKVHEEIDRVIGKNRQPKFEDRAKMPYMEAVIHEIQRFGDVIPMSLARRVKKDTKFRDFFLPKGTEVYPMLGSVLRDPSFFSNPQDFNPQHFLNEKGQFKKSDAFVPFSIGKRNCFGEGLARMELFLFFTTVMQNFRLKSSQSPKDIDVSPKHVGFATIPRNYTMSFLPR
Briefly: CYP2A6-catalyzed coumarin 7-hydroxylase inhibition in pooled human liver microsomes.

For a further series, the target named is CYP2C19 (Homo sapiens, UniProt P33261). The series can be described thus: CYP2C19-catalyzed [S]-mephenytoin 4′-hydroxylase inhibition in pooled human liver microsomes. Particulars: for IC50: CYP2C19 (S)-mephenytoin 4′-hydroxylase, 100 µM [S]-mephenytoin.
Chain of CYP2C19 (P33261 whole entry): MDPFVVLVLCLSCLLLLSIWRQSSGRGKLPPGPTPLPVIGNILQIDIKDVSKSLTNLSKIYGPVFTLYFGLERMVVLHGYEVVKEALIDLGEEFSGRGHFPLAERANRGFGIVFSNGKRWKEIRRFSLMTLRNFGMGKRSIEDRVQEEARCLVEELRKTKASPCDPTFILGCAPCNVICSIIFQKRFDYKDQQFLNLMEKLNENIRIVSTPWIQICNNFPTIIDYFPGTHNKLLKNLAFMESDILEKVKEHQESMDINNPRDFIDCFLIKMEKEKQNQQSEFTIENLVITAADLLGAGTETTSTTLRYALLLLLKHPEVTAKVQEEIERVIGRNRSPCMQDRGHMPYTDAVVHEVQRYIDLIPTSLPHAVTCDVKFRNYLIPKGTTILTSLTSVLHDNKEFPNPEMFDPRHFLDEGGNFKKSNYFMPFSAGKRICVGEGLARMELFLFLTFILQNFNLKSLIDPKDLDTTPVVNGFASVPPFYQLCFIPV

Chain of CYP2C9 (P11712 whole entry): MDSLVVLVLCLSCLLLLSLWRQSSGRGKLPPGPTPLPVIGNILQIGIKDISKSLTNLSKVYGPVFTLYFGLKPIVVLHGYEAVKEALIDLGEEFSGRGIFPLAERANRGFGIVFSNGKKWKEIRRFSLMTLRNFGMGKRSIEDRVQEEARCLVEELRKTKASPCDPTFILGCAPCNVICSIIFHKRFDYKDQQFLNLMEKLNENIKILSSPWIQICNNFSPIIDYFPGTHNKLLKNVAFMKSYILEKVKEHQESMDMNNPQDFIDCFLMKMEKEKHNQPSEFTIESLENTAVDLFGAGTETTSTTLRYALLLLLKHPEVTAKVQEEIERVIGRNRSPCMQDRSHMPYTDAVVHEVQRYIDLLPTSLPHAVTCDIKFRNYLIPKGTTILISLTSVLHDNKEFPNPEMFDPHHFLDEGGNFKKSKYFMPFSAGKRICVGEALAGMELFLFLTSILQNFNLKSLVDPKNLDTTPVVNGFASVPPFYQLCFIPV
Description for CYP2A6: (§3) The degrees of inhibition (the IC50 values) of aschantin toward CYP1A2, CYP2A6, CYP2C8, CYP2C9, CYP2C19, CYP2D6, and CYP3A4 were evaluated using pooled human liver microsomes employing a cocktail of CYP substrates and liquid chromatography-tandem mass spectrometry (LC-MS/MS). […] After 3 min pre-incubation at 37 °C, the reactions were initiated by addition of NADPH and incubation proceeded for 15 min at 37 °C in a shaking water bath. The reaction was stopped by placing the tubes on ice and adding 100 µL amounts of ice-cold methanol containing internal standards (^13C2,^15N-acetaminophen for acetaminophen and N-desethylamodiaquine; d9-1′-hydroxybufuralol for 4′-hydroxydiclofenac; and 7-hydroxycoumarin, 4′-hydroxy-mephenytoin, 1′-hydroxybufuralol, and 1′-hydroxymidazolam). Then the incubation mixtures were centrifuged at 13,000× g for 4 min at 4 °C. All assays were performed in triplicate and the average values were used in calculations.
(§4) To this end, we employed a tandem mass spectrometer (TSQ Quantum Access, Thermo Scientific, San Jose, CA, USA) coupled to a Nanospace SI-2 LC system (Shiseido, Tokyo, Japan). The column and autosampler temperatures were 50 °C and 6 °C, respectively. The mass spectrometer was equipped with an electrospray ionization (ESI) source and was operated in positive ion mode. The ESI source settings for metabolite ionization were as follows: capillary voltage, 4200 V; vaporizer temperature, 350 °C; capillary temperature 330 °C; sheath gas pressure, 35 psi; and auxiliary gas pressure, 15 psi. […] Analytical data were processed using Xcalibur® software (Thermo Scientific).
(§5) The apparent kinetic inhibitory potentials (the Ki values) were estimated from the fitted curves using Enzyme Kinetics version 1.1 (Systat Software Inc.).
Description for CYP2C19: as §3, §4, §5

Take `COc1cc([C@H]2OC[C@H]3[C@@H]2CO[C@@H]3c2ccc3c(c2)OCO3)cc(OC)c1OC` [Aschantin]: on CYP2C9 (read-out: Ki (apparent)), the Ki was 3.7 µM. Besides, on CYP2C9 (pH 7.4, probe diclofenac (10 µM)), the maximal inactivation rate constant (kinact) was 0.000733 s⁻¹. Moreover, the IC50 is > 200 µM on UGT1A4 (UGT1A4-catalyzed trifluoperazine N-glucuronidation, 0.5 µM trifluoperazine, pooled human liver microsomes); 144 µM at UGT1A6; > 100 µM at CYP2A6; > 100 µM at CYP2A6 (read-out: IC50 With Pre-incubation, CYP2A6 coumarin 7-hydroxylase, 2.5 µM coumarin, 30 min pre-incubation with microsomes and NADPH); 22.7 µM at CYP2C19 (IC50 No Pre-incubation, pooled human liver microsomes, no pre-incubation); 6.1 µM against CYP2C19 (IC50 With Pre-incubation, 30 min pre-incubation with microsomes and NADPH). Moreover, at UGT1A4 (aschantin at 200 µM, human liver microsomes), the “inhibition of UGT1A4-catalyzed trifluoperazine N-glucuronidation” value is “not inhibited”. Also, on CYP2A6 (aschantin at 100 µM, human liver microsomes), the “inhibition of CYP2A6-mediated coumarin 7-hydroxylation” value is “negligibly inhibited”. In addition, the IC50 shift at 0.5 h at CYP2C19 (human, pooled human liver microsomes, pH 7.4, probe [S]-mephenytoin (100 µM), 4′-hydroxylation) is > 2.5.
